# Paper doi:10.1101/757047v1 (biorxiv, 2019)
# Where two headings read alike, the source gives them in different places.
# How the values were obtained:
# GAK [1] = target: T1, GAK (Homo sapiens, UniProt O14976); experiment: biochemical
# T1 sequence (O14976 12-347 limits assumed): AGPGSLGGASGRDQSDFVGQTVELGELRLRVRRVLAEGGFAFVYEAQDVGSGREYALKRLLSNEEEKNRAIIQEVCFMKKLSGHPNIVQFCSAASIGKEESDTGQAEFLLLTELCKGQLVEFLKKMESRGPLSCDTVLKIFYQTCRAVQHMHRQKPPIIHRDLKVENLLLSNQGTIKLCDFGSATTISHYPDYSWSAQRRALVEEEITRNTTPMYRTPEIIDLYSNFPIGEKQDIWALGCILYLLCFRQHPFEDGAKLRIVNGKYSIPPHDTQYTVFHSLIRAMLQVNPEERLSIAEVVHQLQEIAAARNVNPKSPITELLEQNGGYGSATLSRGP
# SLK [2] = target: T2, SLK (Homo sapiens, UniProt Q9H2G2); experiment: biochemical
# STK10 [3] = target: T3, STK10 (Homo sapiens, UniProt O94804); experiment: biochemical
# [4] = target: T4, full length GAK protein N-terminally fused with NanoLuc luciferase (Homo sapiens, UniProt O14976); experiment: cell-based; parameters: species or system HEK293T
# T4 sequence (O14976 2-1311): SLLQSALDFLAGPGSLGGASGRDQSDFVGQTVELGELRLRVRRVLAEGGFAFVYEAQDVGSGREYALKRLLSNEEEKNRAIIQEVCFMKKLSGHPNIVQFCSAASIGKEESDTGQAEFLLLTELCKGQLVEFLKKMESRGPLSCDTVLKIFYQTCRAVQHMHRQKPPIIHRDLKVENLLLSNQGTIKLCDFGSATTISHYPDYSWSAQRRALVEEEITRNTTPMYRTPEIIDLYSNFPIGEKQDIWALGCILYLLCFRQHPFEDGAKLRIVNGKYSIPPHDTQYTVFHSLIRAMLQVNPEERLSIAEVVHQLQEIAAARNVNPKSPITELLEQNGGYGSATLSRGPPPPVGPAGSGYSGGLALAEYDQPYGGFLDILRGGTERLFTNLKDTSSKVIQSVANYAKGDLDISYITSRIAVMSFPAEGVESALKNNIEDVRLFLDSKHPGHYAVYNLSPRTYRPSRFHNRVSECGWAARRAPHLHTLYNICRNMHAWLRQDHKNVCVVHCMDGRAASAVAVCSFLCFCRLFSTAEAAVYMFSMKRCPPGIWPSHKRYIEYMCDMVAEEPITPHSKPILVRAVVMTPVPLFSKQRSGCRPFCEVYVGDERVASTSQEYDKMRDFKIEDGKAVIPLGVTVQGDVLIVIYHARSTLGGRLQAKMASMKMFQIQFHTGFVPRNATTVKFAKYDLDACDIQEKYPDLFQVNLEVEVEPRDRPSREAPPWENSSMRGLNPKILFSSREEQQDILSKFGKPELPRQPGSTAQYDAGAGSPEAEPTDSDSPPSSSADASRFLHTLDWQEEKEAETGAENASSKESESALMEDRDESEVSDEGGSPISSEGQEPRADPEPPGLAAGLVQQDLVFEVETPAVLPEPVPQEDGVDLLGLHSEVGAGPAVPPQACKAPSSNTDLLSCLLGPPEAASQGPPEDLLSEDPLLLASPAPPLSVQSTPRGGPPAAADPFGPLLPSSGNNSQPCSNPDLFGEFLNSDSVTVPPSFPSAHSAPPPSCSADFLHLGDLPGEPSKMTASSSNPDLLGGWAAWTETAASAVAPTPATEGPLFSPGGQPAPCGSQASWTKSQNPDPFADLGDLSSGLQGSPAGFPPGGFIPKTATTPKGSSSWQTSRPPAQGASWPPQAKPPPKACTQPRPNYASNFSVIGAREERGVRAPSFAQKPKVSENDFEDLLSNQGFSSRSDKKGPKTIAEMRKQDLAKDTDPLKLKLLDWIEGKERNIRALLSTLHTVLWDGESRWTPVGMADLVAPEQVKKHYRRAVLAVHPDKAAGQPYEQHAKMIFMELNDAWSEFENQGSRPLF
# SLK [5] = target: T2, SLK; experiment: biochemical; remark: listed apart in the source
# STK10 [6] = target: T3, STK10; experiment: biochemical; remark: listed apart in the source
# [7] = target: T4, full length GAK protein N-terminally fused with NanoLuc luciferase; experiment: cell-based; parameters: species or system HEK293T; remark: listed apart in the source
# GAK [8] = target: T1, GAK; experiment: biochemical; remark: listed apart in the source
# GAK [9] = target: T1, GAK; experiment: biochemical; remark: listed apart in the source
# SLK [10] = target: T2, SLK; experiment: biochemical; remark: listed apart in the source
# STK10 [11] = target: T3, STK10; experiment: biochemical; remark: listed apart in the source
# [12] = target: T4, full length GAK protein N-terminally fused with NanoLuc luciferase; experiment: cell-based; parameters: species or system HEK293T; remark: listed apart in the source
# SLK [13] = target: T2, SLK; experiment: biochemical; remark: listed apart in the source
# [14] = target: T4, full length GAK protein N-terminally fused with NanoLuc luciferase; experiment: cell-based; parameters: species or system HEK293T; remark: listed apart in the source
# GAK [15] = target: T1, GAK; experiment: biochemical; remark: listed apart in the source
# T3 sequence (O94804 36-294 limits assumed): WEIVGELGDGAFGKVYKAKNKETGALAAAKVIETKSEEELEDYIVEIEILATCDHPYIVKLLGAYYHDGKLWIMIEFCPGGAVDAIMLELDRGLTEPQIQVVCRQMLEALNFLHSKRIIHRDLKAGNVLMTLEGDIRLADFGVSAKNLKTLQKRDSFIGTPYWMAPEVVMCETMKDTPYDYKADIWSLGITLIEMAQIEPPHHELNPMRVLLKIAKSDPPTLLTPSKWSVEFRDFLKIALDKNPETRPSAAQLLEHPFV
# T2 sequence (Q9H2G2 34-292): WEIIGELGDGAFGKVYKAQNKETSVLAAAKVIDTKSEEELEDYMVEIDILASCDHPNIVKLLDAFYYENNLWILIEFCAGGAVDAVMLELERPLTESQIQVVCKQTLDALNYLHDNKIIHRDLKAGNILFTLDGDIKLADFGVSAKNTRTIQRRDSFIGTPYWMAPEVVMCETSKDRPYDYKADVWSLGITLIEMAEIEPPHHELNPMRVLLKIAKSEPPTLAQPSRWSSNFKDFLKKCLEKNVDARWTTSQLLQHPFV
smiles,measurement,setting,value
"C#Cc1cccc(Nc2c(C#N)cnc3ccc(I)cc23)c1 [compound 79, 79]",Ki,GAK [1],20 nM
same,Ki,SLK [2],1100 nM
same,Ki,STK10 [3],1000 nM
same,IC50,[4],> 5000 nM
"Fc1ccc(Nc2ccnc3ccc(Br)cc23)cc1 [compound 108, 108]",Ki,SLK [5],36000 nM
same,Ki,STK10 [6],21000 nM
same,IC50,[7],940 nM
"Fc1cccc(Nc2ccnc3ccc(Br)cc23)c1 [compound 110, 110]",Ki,GAK [8],19 nM
same,Ki,SLK [5],> 55000 nM
same,Ki,STK10 [6],> 55000 nM
same,IC50,[7],1900 nM
"Brc1cccc(Nc2ccnc3ccc(Br)cc23)c1 [compound 112, 112]",Ki,GAK [8],72 nM
same,Ki,SLK [5],> 55000 nM
same,Ki,STK10 [6],> 55000 nM
same,IC50,[7],> 5000 nM
"Fc1cc(F)cc(Nc2ccnc3ccc(Br)cc23)c1 [compound 105, 105]",Ki,GAK [8],12 nM
same,Ki,SLK [5],> 55000 nM
same,Ki,STK10 [6],> 55000 nM
same,IC50,[7],> 5000 nM
"COc1cc(Nc2c(C#N)cnc3cc(Br)ccc23)cc(OC)c1OC [compound 51, 51]",Ki,GAK [9],2.9 nM
same,Ki,SLK [10],710 nM
same,Ki,STK10 [11],440 nM
same,IC50,[12],140 nM
"Fc1ccc(Nc2ncnc3ccc(Br)cc23)cc1 [compound 109, 109]",Ki,GAK [8],120 nM
same,Ki,SLK [5],> 55000 nM
same,Ki,STK10 [6],> 55000 nM
same,IC50,[7],> 5000 nM
"Fc1cc(Nc2ccnc3ccc(Br)cc23)cc(F)c1F [compound 103, 103]",Ki,GAK [8],23 nM
same,Ki,SLK [5],> 55000 nM
same,Ki,STK10 [6],> 55000 nM
same,IC50,[7],4400 nM
"COc1cc(Nc2c(C#N)cnc3cc(I)ccc23)cc(OC)c1OC [compound 52, 52]",Ki,GAK [9],5.2 nM
same,Ki,SLK [10],490 nM
same,Ki,STK10 [11],200 nM
same,IC50,[12],200 nM
"COc1cc(Nc2c(C#N)cnc3cc(Cl)ccc23)cc(OC)c1OC [compound 50, 50]",Ki,GAK [9],6.6 nM
same,Ki,SLK [10],1400 nM
same,Ki,STK10 [11],790 nM
same,IC50,[12],470 nM
"C#Cc1cccc(Nc2ncnc3cc(C#N)ccc23)c1 [compound 67, 67]",Ki,SLK [13],260 nM
same,IC50,[14],> 5000 nM
same,Ki,GAK [15],100 nM
"C#Cc1cccc(Nc2c(C#N)cnc3ccc(Cl)cc23)c1 [compound 77, 77]",Ki,GAK [1],16 nM
same,Ki,SLK [2],710 nM
same,Ki,STK10 [3],720 nM
same,IC50,[4],3200 nM
"Fc1ccc(Nc2ccnc3ccc(Br)cc23)cc1F [compound 104, 104]",Ki,GAK [8],11 nM
same,Ki,SLK [5],> 55000 nM
same,Ki,STK10 [6],> 55000 nM
same,IC50,[7],> 5000 nM
"C#Cc1cccc(Nc2c(C#N)cnc3cc(Cl)ccc23)c1 [compound 84, 84]",Ki,GAK [1],28 nM
same,Ki,SLK [2],180 nM
same,Ki,STK10 [3],210 nM
same,IC50,[4],> 5000 nM
"C#Cc1cccc(Nc2c(C#N)cnc3cc(Br)ccc23)c1 [compound 85, 85]",Ki,GAK [1],27 nM
same,Ki,SLK [2],160 nM
same,Ki,STK10 [3],130 nM
same,IC50,[4],> 5000 nM
